Measured values: ChEMBL document CHEMBL1833831, “In vivo anti-inflammatory and antioxidant properties of ellagitannin metabolite urolithin A” (Bioorg Med Chem Lett, 2011)
The source made the active and inactive calls. The calls are words filed in the database; no cut-off is given here.

Key:
Mus musculus [1] = assay: Antiinflammatory activity against carrageenan-induced paw edema in ICR mouse at 300 mg/kg, po administered 6 hr before carrageenan challenge measured after 3 to 24 hrs by plethysmometer; format: functional, organism-based; parameters: dose 300 mg/kg
Plasma [2] = assay: Drug level in ICR mouse plasma assessed as free compound level after 6 hrs in presence of beta-glucuronidase by HPLC-ESI-MS/MS analysis; format: ADME, cell-free
Plasma [3] = assay: Drug level in ICR mouse plasma assessed as free compound level after 1 hr in presence of beta-glucuronidase by HPLC-ESI-MS/MS analysis; format: ADME, cell-free
[4] = Drug level in human plasma after 6 hrs; format: ADME, cell-free
Mus musculus [5] = assay: Antiinflammatory activity against carrageenan-induced paw edema in ICR mouse at 300 mg/kg, po administered 1 hr before carrageenan challenge measured after 24 hrs by plethysmometer relative to control; format: functional
Mus musculus [6] = assay: Antiinflammatory activity against carrageenan-induced paw edema in ICR mouse at 300 mg/kg, po administered 1 hr before carrageenan challenge measured after 3 hrs by plethysmometer relative to control; format: functional
Plasma [7] = assay: Drug level in ICR mouse plasma assessed as free compound level after 6 hrs in presence of beta-glucuronidase by HPLC-ESI-MS/MS analysis relative to total compound level; format: ADME, cell-free
Mus musculus [8] = assay: Antiinflammatory activity against carrageenan-induced paw edema in ICR mouse at 300 mg/kg, po administered 1 hr before carrageenan challenge measured after 6 hrs by plethysmometer relative to control; format: functional
Mus musculus [9] = assay: Antioxidant activity against AAPH-induced lipid peroxidation in ICR mouse assessed as decrease in ORAC score in plasma at 300 mg/kg, po after 6 hr relative to control; format: functional; parameters: scale not given: the % may be the effect or the level left
[10] = Drug level in human plasma after 0.5 hrs; format: ADME, cell-free
Plasma [11] = assay: Drug level in ICR mouse plasma assessed as free compound level after 1 hr in presence of beta-glucuronidase by HPLC-ESI-MS/MS analysis relative to total compound level; format: ADME, cell-free
Mus musculus [12] = assay: Antioxidant activity against AAPH-induced lipid peroxidation in ICR mouse assessed as increase in ORAC score in plasma at 300 mg/kg, po after 1 hr relative to control; format: functional
[13] = Drug level in rat plasma at 5 mg after 6 hrs; format: ADME, cell-free

Row | Cp(f) (Plasma [2]) [nM] | Cp(f) (Plasma [3]) [nM] | concentration at 6 h [4] [nM] | Cp(f) (Plasma [7]) [%] | concentration at 0.5 h [10] [nM] | Cp(f) (Plasma [11]) [%] | concentration at 6 h [13] [nM] | SMILES | Activity (Mus musculus [1]) | Activity (Mus musculus [5]) [%] | Activity (Mus musculus [6]) [%] | Activity (Mus musculus [8]) [%] | Activity (Mus musculus [9]) [%] | Activity (Mus musculus [12]) [%]
1 | 830 | 2850 | 110 | 65.7 | 40 | 77.2 |  | O=c1oc2cc(O)ccc2c2ccc(O)cc12 | inactive | 34 | 35 | 26 | 118 | 142
2 |  |  |  |  |  |  | 450 | O=C1O[C@H]2[C@@H]3OC(=O)c4cc(O)c(O)c(O)c4-c4c(cc(O)c(O)c4O)C(=O)OC[C@H]2O[C@@H](OC(=O)c2cc(O)c(O)c(O)c2)[C@@H]3OC(=O)c2cc(O)c(O)c3c2[C@@H]2C1=CC(=O)[C@](O)(O3)C2(O)O [GERANIIN] |  |  |  |  |  | 
